Assay results as given in publication PMC11173677, “Identification and Evaluation of Olive Phenolics in the Context of Amine Oxidase Enzyme Inhibition and Depression: In Silico Modelling and In Vitro Validation” (Molecules, 2024).

Legend:
BJ cells = experiment: Viability of BJ cells (CellTiter-Blue Cell Viability Assay); format: cell-based, human; settings: for IC50: Homo sapiens, BJ
Procedure: The BJ cells were seeded at densities of 10,000 cells in black flat bottom 96-well plates (Nalge Nunc, Penfield, Rochester, NY, USA) and treated with a dose–response of OLC (0–500 μM) and OLP (0–500 μM) for 24 h, 48 h, 72 h, and 7 days at 37 °C, 5% (v/v) CO2. Cell viability was measured using the Cell-Titer Blue® Assay kit (Promega, Madison, WI, USA) according to the manufacturer’s instructions. Cell-Titer Blue reagent was added to each well and incubated for 4 h at 37 °C with 5% (v/v) CO2 before the fluorescence intensity was read using the CLARIOstar Microplate Reader (BMG Labtech, Ortenberg, Germany).
A Nikon Eclipse Ts2 light microscope (Nikon Ti TS2-S-SM, Tokyo, Japan) was used to image untreated and treated BJ cells (OLP or OLC: 0–100 μM) at 4× objective magnification at 20, 44, and 120 h (Figures S1 and S2).

MAO-A/B expression = experiment: MAO-A/B protein expression in HC- or DEX-stimulated BJ cells (Western blotting); format: cell-based, human; settings: 10 μM HC 5 days or 100 μM DEX 7 days, then 50 μM compound; Western blot
Procedure: (§1) The BJ cells were subsequently incubated with 10 μM HC or 100 μM DEX to stimulate MAO expression. […] The untreated BJ cells received normal growth medium. The cells were collected, homogenised, and analysed through Western blotting where the expression of MAO-A/B was determined through immunodetection of protein subtypes.

MAO-A = system: T1, MAO-A; experiment: MAO-A activity assay in hESC-derived neurons stimulated with ATRA; format: cell-based, human; settings: 1 μM ATRA 24 h, then TCP 5 μM, OLC 50 μM or OLP 50 μM for 24 h
T1 construct: endogenous in cells; host or cells: BJ human foreskin fibroblasts stimulated with DEX or HC
Procedure: (§2) An in vitro model of MDD was designed for stem cell-derived neuronal cells through incubation of 1 μM all-trans retinoic acid (Sigma-Aldrich PHR1187, St. Louis, MO, USA). All cell treatments were conducted in duplicate and replicated using independently differentiating neuronal plates.
(§3) Activity assays were commercially sourced from BioVision (Abcam, BioVision ab241031, Waltham, MA, USA) and were performed according to manufacturer’s instructions. The treatment groups were plated in duplicate on a black, flat 96-well microplate. The cells were homogenised in assay buffer using a microtube mixer at 4 °C and centrifuged at 10,000× g for 10 min. A Bradford assay was performed to determine the total protein concentration within each cell pellet (200 μg/well for BJ cells, 40 μg/well for hESC-derived neurons). Approximately 40 μL of supernatant was loaded into wells along with 10 μL of either […], or assay buffer for total MAO activity. A H2O2 standard was pipetted as supplied and 50 μL of reaction mix was pipetted into all wells. Using a CLARIOstar Plus Microplate Reader, (BMG Labtech, Ortenberg, Germany), fluorescence was measured kinetically at 25 °C for 60 min with Ex/Em = 535/587 nm.

MAO-B = system: T2, MAO-B; experiment: MAO-B activity assay in corticosteroid-stimulated BJ cells; format: cell-based, human; settings: then 50 μM compound 24 h
T2 construct: endogenous in cells; host or cells: BJ human foreskin fibroblasts stimulated with DEX or HC
Procedure: as §1, §3

total MAO = experiment: Total MAO activity assay in hESC-derived neurons stimulated with ATRA; format: cell-based, human; settings: 1 μM ATRA 24 h, then TCP 5 μM, OLC 50 μM or OLP 50 μM for 24 h
Procedure: as §2, §3

LSD1 = target: T3, LSD1 (Homo sapiens, UniProt O60341); experiment: LSD1 fluorescence coupling enzyme assay (Reaction Biology Corporation); format: biochemical; settings: Reaction Biology Corp., 30 min pre-incubation, 10 μM histone H3(1-21)K4me2 peptide substrate; read-out: IC50, LSD1 demethylase activity
T3 construct: Reaction Biology Corporation (performed the assay)
Procedure: The inhibitory activity of HCl 489479, OLC, and OLP was measured using a fluorescence coupling enzyme assay (performed by Reaction Biology Corporation). […] All compounds were pre-incubated for 30 min with the enzyme before the addition of 10 μM histone H3(1-21)K4me2 peptide substrate to start the reaction. Fluorescence was measured using an EnVision Multimode Plate Reader at Ex/Em = 535/590.

Q: Which “relative viability of BJ cells at the highest concentration” value (BJ cells; 500 μM) does the source give for `COC(=O)[C@H](O)CC(=O)OCCc1ccc(O)c(O)c1` [OLP, oleohydroxypyretol] here?
A: The value was “decreased”.

Q: And the “proliferation potential of BJ cells” value (BJ cells; 25, 50, 75 and 100 μM, similar to untreated cells)?
A: Its value is “maintained their proliferation potential”.

Q: And the IC50 (BJ cells; 24 h)?
A: Its IC50 is 220 µM.

Q: What about the IC50 (BJ cells; 48 h) of the same molecule?
A: Its IC50 is 257 µM.

Q: And the “toxicity to BJ cells at the concentrations used in further experiments” value (BJ cells; concentrations used in further experiments (50 μM))?
A: Its value is “non-toxic”.

Q: And the “viability of BJ cells at lower concentrations” value (BJ cells; up to 200 μM)?
A: Its value is “largely maintained”.

Q: And the “MAO enzyme expression within BJ cells” value (MAO-A/B expression)?
A: The value was “Potent inhibition”.

Q: And the “MAO-A activity in hESC-derived neurons” value (MAO-A)?
A: Its value is “significantly reduced”.

Q: What about the “MAO-B activity in BJ cells” value (MAO-B; 10 μM HC 5 days) of the same molecule?
A: The value was “downregulate”.

Q: And the “MAO-B activity in BJ cells” value (MAO-B; 100 μM DEX 7 days)?
A: Its value is “downregulate”.

Q: And the “total MAO activity in hESC-derived neurons” value (total MAO)?
A: The value was “significantly reduced”.

Q: What about the IC50 (LSD1) of the same molecule?
A: The IC50 was 0.12 µM.
